According to patent publication US12667087B2, “Methods of treatment with aminolevulinic acid synthase 2 (ALAS2) modulators” (Agios Pharmaceuticals, Inc., priority 2019, dated 2026):

Target: T1, wild type ALAS2 (Homo sapiens, UniProt P22557)
T1 construct: MBP (TEV-cleavable) (C, cleaved yes); made in house; host or cells: E. coli
T1 sequence (P22557 79-587): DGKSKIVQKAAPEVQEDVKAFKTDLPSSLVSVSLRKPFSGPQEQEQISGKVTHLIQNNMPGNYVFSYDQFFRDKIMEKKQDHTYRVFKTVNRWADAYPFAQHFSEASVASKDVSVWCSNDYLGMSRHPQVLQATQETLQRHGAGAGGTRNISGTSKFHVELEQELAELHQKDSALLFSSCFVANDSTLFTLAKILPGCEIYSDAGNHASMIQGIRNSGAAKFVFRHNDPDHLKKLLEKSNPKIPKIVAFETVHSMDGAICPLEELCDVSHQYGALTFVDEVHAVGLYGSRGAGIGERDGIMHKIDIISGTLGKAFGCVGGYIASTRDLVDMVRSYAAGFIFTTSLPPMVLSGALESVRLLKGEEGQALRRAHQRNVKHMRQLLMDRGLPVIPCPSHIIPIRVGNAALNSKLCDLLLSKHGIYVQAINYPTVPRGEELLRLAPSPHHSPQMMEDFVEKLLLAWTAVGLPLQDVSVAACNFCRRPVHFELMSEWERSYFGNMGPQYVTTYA
Experiment: General IC50 assay, version 1 (5 ug/mL ALAS2), ALA by mass spectrometry
Assay type: biochemical
Conditions: version 1 assay: 5 ug/mL ALAS2, 0 uM PLP, 1 h reaction
Description: (§1) The exemplified compounds in Table I were tested in vitro against the wild type ALAS2. As described in Example 38, two concentrations of ALAS2 were used: 5 ug/mL ALAS2 (for the version I assay) and 2 ug/mL (for the version 2 assay). “A” refers to an IC50 less than 10.0 μM; “B” refers to an IC50 from 10.0 μM to 50.0 μM; and “C” refers to an AC50 greater than 50.0 μM.
(§2) ALAS2 sequence (see FIG. 8) (residues 79-587) was expressed in E. coli as a TEV cleavable C-terminally MBP tagged construct. Purification steps included an amylose column, followed by MBP tag cleavage and passage through a Ni-NTA column to remove cleaved MBP. ALAS2 was further purified and exchanged into storage buffer (50 mM Tris, 500 mM NaCl, 1 mM DTT, 10 μM PLP, pH 8.0) by size exclusion through a Superdex 200 column and stored at −80° C.
(§3) Preparation of stock solutions: All solutions were prepared by standard methods with the exception of glycine and succinyl CoA. A 1 M solution of glycine was prepared and the pH adjusted to 8.0 by addition of […]. A 1 mM solution of succinyl CoA was prepared in 20 mM phosphoric acid, pH 2.0 to ensure its stability to hydrolysis.
(§4) Routine compound testing for IC50 measurements: Assays were carried out in 96-well V-bottom polypropylene plates (Greiner-Bio cat. no. 651201) at room temperature. Test compound dilution series and DMSO blanks (1 μL) were dispensed into the 96-well plates. A solution of 1.1× assay mix was prepared to contain, in the final 1× assay conditions: 5 μg/mL ALAS2 (for the version 1 assay) or 2 ug/mL (for the version 2 assay), 20 mM sodium phosphate pH 8.0, 3.5 mM glycine, 1 mM MgCl2, 30 mM NaCl, 0.03% BSA, 1 mM EDTA. Assay mix (45 μL) was added to each well, and compound and assay mix were pre-incubated for 1 h at room temperature. Assays were then initiated by addition of 5 μL 1 mM succinyl CoA to each well to give a final concentration of 100 μM. Reactions proceeded for 1 h (version 1 assay) or 2 h (version 2 assay) at room temperature, then were quenched by addition of 200 μL acetonitrile containing 1% formic acid and 0.2 μg/mL ^13C, ^15N aminolevulinic acid (ALA) as an internal standard. The plates were centrifuged at 4° C. for 1 min at 3500 rpm, then 200 μL of supernatant was transferred to a fresh 96-well plate for detection of ALA by high throughput mass spectrometry.
(§5) Measurement of ALA concentration by high throughput mass spectrometry: ALA was monitored in positive mode on a Sciex QTRAP 6500 connected to a Shimadzu 20AD LC using the conditions outlined in the table below. Samples were transferred from the assay plate and loaded onto a ZIC HILIC Trap column (Optimize Technologies, 4 μL, 10 μM) at a flow rate of 1.2 mL/min in 99% acetonitrile, 1% ddH2O containing 0.5% formic acid to remove nonvolatile components with a 6 s desalt cycle. Analytes were eluted with 95% acetonitrile, 5% ddH2O containing 0.5% formic acid in 12 s elution cycles. Concentrations of ALA in each sample were measured by comparison to an authentic standard curve, and IC50s were determined by fitting to the log(compound) vs. response equation Y=bottom+(top−bottom)/(1+10^((log IC50-X)*HillSlope)).

Row | Compound | IC50 (uM) ALAS2 v1; 0 uM PLP
1 | CN(N)c1snnc1-c1ccccc1 [Compound 16] | No Fit
2 | CC(C)N(N)c1nnn[nH]1 [Compound 62] | No Fit

Same assay, conditions: version 1 assay: 5 ug/mL ALAS2, 0 uM PLP, 1 h reaction; read-out: IC50 (uM) ALAS2 v1; 0 uM PLP

Row | Compound | IC50 [µM]
3 | Cc1ccccc1-c1nnc(NN)[nH]1 [Compound 11] | < 10
4 | NNc1nnnn1-c1ccccc1 [Compound 15] | > 50
5 | CN(N)c1nnc(C(F)(F)F)[nH]1 [Compound 36] | < 10
6 | NNc1nc(N2CCOCC2)n[nH]1 [Compound 14] | 10 to 50
7 | NNc1nc(-c2cccnc2)no1 [Compound 19] | < 10
8 | NNc1ccn(CC(=O)O)n1 [Compound 35] | < 10
9 | CCCc1nnc(NN)[nH]1 [Compound 13] | 10 to 50
10 | NNc1nnc(C2CC2)s1 [Compound 25] | > 50
11 | CC(C)n1ccc(NN)n1 [Compound 32] | < 10
12 | NNc1nc(-c2ccccc2)no1 [Compound 21] | < 10
13 | NNc1nc(-c2ccc(N)cc2)cs1 [Compound 17] | > 50
14 | Cn1c(NN)nnc1-c1ccccc1 [Compound 30] | > 50
15 | NNc1nnc(C2CCC2)[nH]1 [Compound 12] | > 50
16 | NNc1nc(-c2ccncc2)no1 [Compound 20] | < 10
17 | Cn1nnnc1NN [Compound 55] | > 50
18 | NNc1cc(C(F)(F)F)n[nH]1 [Compound 28] | 10 to 50
19 | NNc1nnc(-c2ccccc2)[nH]1 [Compound 34] | < 10
20 | NNc1ccn(CC(F)F)n1 [Compound 33] | 10 to 50
21 | NNc1cc(-c2ccncc2)[nH]n1 [Compound 7] | 10 to 50

Row | Compound | IC50 [µM]
22 | NNc1nc(-c2ccco2)cs1 [Compound 18] | > 50
23 | NNc1nc(-c2ccccn2)no1 [Compound 6] | 10 to 50
24 | NNc1nc(C(F)(F)F)cs1 [Compound 23] | > 50
25 | CN(N)c1nnn[nH]1 [Compound 64] | < 10
26 | NNc1nnc(C(F)(F)F)s1 [Compound 29] | < 10
27 | CCN(N)c1nnn[nH]1 [Compound 63] | > 50
28 | COc1ccc(-c2nnc(NN)s2)cc1 [Compound 24] | 10 to 50
29 | NNc1nnn[nH]1 [Compound 67] | < 10
30 | NN(c1nnn[nH]1)C1CC1 [Compound 61] | > 50
31 | NN(CCO)c1nnn[nH]1 [Compound 56] | > 50
32 | NNc1nc(-c2ccccc2)cs1 [Compound 26] | > 50
33 | NNc1ccn(-c2ccccc2)n1 [Compound 10] | 10 to 50
34 | NNc1cc(-c2ccccc2)[nH]n1 [Compound 9] | 10 to 50
35 | NNc1nc(-c2ccc(F)cc2)no1 [Compound 8] | 10 to 50
36 | NNc1nnc(-c2ccccn2)s1 [Compound 22] | < 10
37 | NNc1nnc(-c2ccccc2)s1 [Compound 27] | < 10
38 | NNc1ccn(CC(F)(F)F)n1 [Compound 31] | > 50
39 | CCCN(N)c1nnn[nH]1 [Compound 60] | > 50

Next, values leading:

Row | IC50 [µM] | Compound
40 | 10 to 50 | N#Cc1cnc(NN)s1 [Compound 48]
41 | > 50 | Cc1nc(C#N)c(NN)o1 [Compound 52]
42 | > 50 | NNc1nnc(O)[nH]1 [Compound 50]
43 | 10 to 50 | NNc1nc(CO)cs1 [Compound 53]
44 | < 10 | NNc1n[nH]nc1C(F)(F)F [Compound 39]
45 | < 10 | CN(N)c1noc(=O)[nH]1 [Compound 45]
46 | > 50 | Cc1csc(NN)n1 [Compound 42]
47 | < 10 | CCN(N)c1noc(=O)[nH]1 [Compound 38]
48 | 10 to 50 | Cc1nc(NN)sc1C(=O)O [Compound 54]
49 | > 50 | N#Cc1ncoc1NN [Compound 59]
50 | < 10 | CN(N)c1n[nH]c(=O)[nH]1 [Compound 43]
51 | > 50 | COCc1cnc(N(N)C(=O)C(F)(F)F)s1 [Compound 51]
52 | > 50 | NNc1nnco1 [Compound 47]
53 | > 50 | NNc1ncc(C(=O)O)s1 [Compound 49]
54 | 10 to 50 | CCOC(=O)c1sc(NN)nc1C [Compound 57]
55 | < 10 | CCOC(=O)c1[nH]cnc1NN [Compound 46]
56 | < 10 | NNc1nnc[nH]1 [Compound 66]
57 | 10 to 50 | CN(N)c1n[nH]nc1C(F)(F)F [Compound 37]
58 | < 10 | NNc1nnc(C(F)(F)F)[nH]1 [Compound 44]
59 | > 50 | CN(N)c1nnnn1Cc1ccccc1 [Compound 65]
60 | < 10 | Cc1cnc(NN)s1 [Compound 40]
61 | > 50 | Cn1cnnc1NN [Compound 58]
62 | > 50 | COCc1cnc(NN)s1 [Compound 41]

Target: T1, wild type ALAS2
Experiment: General IC50 assay, version 2 (2 ug/mL ALAS2), ALA by mass spectrometry
Assay type: biochemical
Conditions: version 2 assay: 2 ug/mL ALAS2, 0 uM PLP, 2 h reaction, read-out: IC50 (uM) ALAS2 v2
Description: as §1, §2, §3, §4, §5

Row | Compound | IC50 [µM]
63 | NNc1nc(-c2ccc3ccccc3c2)no1 [Compound 2] | < 10
64 | COc1ccc(-c2noc(NN)n2)cc1 [Compound 5] | 10 to 50
65 | NNc1nc(-c2cccc(C(F)(F)F)c2)no1 [Compound 3] | > 50
66 | NNc1nc(-c2ccc(C(F)(F)F)cc2)no1 [Compound 4] | 10 to 50
67 | NNc1nc(-c2ccnc3ccccc23)no1 [Compound 1] | < 10
